From patent US6652874B2, “Pharmaceutical preparations and methods for their regional administration” (FemmePharma, priority 1997, dated 2003)

Columns and labels:
[1] = rat, in vivo
Procedure: Mature female Sprague-Dawley rats were used for the experiment. 1 mg of the microparticulate danazol was delivered in a volume of 50 μl to the vaginal vault and the animals sacrificed at the times noted below. The uterus and ovaries were separately homogenized and blood was drawn. All tissues and biological samples were processed. Danazol was extracted and assayed by HPLC methodology.
Danazol was extracted from serum and tissue hexane/chloroform 80/20. For tissues, 1 ml aliquote of each homogenate was taken. The extracted danazol was reconstituted in a water/acetonitrile mobile phase and a Beckman Ultrasphere 5 micron, 4.6 mm×15 cm reverse phase column (C-18 RP) was used for all the HPLC analyses. A danazol recovery study was conducted using danazol drug product. The recovery was determined by comparing the extracted signal with unextracted signal.

[2] = high doses, up to 800 mg daily; cited from earlier work

C#C[C@]1(O)CC[C@H]2[C@@H]3CCC4=Cc5oncc5C[C@]4(C)[C@H]3CC[C@@]21C [Danazole, Danazol]
Serum drug levels (in words) [1]: almost undetectable
Adverse side effects [2]: adverse side effects are seen
